Data from patent US20020028936A1, “1,3-disubstituted indolin-2-ones for neoplasia” (priority 1999, published 2002).

Columns and labels:
[1] = system: human colon carcinoma cell line, HT-29; test: Growth inhibition, Sulforhodamine B (SRB) protein binding assay; format: cell-based; details: HT-29 cells, six days continuous exposure, read-out: IC50 value (concentration of drug needed to inhibit tumor cell growth by 50%)
Experimental: The compound of Example No. 1 was assayed for their growth inhibitory activity on the human colon carcinoma cell line, HT-29 obtained from ATCC (Rockville, Md.), to ascertain the degree of growth inhibition. Growth inhibition of this cell line is indicative of a benefit on precancerous lesions and neoplasms. The cell line and growth inhibition assay employed for such experiments are well characterized, and are used to evaluate the anti-neoplastic properties of substances. The assay is used by the United States National Cancer Institute in its screening program for new anti-cancer drugs.
Drug stock solutions were made in 100% DMSO and were then diluted with RPMI media for cell culture testing. All drug solutions were prepared fresh on the day of testing. The cultured cells were obtained at passage #99 and grown in RPMI media supplemented with 5% fetal calf serum, and 2 mM glutamine, 100 U/ml penicillin, […] streptomycin, and 0.25 μg/ml amphotericin. The cultures were maintained in a humidified atmosphere of 95% air and 5% CO2 at 37° C. The cultures were passaged at preconfluent densities using a solution of 0.05% trypsin and 0.53 mM EDTA. […]
Tumor cell growth inhibition was assessed using the Sulforhodamine B (SRB) protein binding assay. […] The dye was then solubilized, and the optical density of the resulting solution was determined on a 96-well plate reader. […]

[2] = system: SW-480 colon adenocarcinoma cells; test: Apoptosis, DNA fragmentation (Cell Death Detection ELISA plus); format: cell-based; details: at 100 μM; SW-480 cells, 48 hrs incubation
Experimental: Apoptosis was measured based on the amount of fragmented DNA contained in cell lysates. Briefly, SW-480 colon adenocarcinoma cells were plated in 96-well microtitre plates (“MTP”) at a density of 10K cells/well in 180 μl and were incubated for 24 hrs. Cells were then treated with 20 μl aliquots of appropriately diluted compound, and allowed to incubate for an additional 48 hrs.
After the incubation, samples were prepared according to the following steps. The MTP was centrifuged (15 min., 1000 rpm) and the supernatant was carefully removed by fast inversion of the MTP. […] Samples were analyzed immediately, because storage at 4° C. or −20° C. reduces the ELISA-signals.
Samples were then processed according to a DNA fragmentation assay protocol, and dose-response curves were generated based on optical density readings. Quantification of DNA was done by a commercially available photometric enzyme-immunoassay manufactured by Mannheim-Boehringer under the name “Cell Death Detection ELISA^plus”. The assay is based on a quantitative sandwich-enzyme-immunoassay-principle using mouse monoclonal antibodies directed against DNA and histones, respectively. […] After removal of unbound antibodies by a washing step, the amount of nucleosomes is quantified by the POD retained in the immunocomplex. POD is determined photometrically with ABTS® (2,2′-Azino-di[3-ethylbenzthiazolin-sulfonate) as substrate. […]

[3] = target: T1, purified cyclooxygenase Type I (Ovis aries, UniProt P05979); test: Cyclooxygenase (COX) inhibition, purified COX; format: biochemical; details: 100 μM compound; COX purified from ram seminal vesicles; arachidonic acid 100 μM, 2.0 min at 37° C.
T1 construct: The COX was purified from ram seminal vesicles; from tissue; host or cells: ram seminal vesicles
T1 sequence (P05979 25-600): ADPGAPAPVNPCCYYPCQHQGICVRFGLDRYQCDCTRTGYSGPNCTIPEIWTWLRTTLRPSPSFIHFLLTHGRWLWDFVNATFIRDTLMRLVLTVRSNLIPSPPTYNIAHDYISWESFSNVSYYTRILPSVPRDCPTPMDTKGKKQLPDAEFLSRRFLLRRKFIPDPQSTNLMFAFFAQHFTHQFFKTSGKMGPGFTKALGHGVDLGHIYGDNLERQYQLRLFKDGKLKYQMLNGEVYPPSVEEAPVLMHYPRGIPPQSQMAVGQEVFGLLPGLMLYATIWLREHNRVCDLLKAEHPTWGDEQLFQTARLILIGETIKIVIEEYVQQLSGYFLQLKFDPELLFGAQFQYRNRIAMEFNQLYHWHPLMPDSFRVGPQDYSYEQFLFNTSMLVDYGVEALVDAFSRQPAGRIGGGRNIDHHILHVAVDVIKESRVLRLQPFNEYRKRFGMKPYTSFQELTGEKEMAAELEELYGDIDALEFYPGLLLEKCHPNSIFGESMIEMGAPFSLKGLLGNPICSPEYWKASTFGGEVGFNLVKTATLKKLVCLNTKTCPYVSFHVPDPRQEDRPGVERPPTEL
Experimental: The assay was terminated by the addition of TCA, and COX activity was determined by absorbance at 530 nm.

O=C1C(=Cc2ccccc2)c2ccccc2N1Cc1ccc(F)cc1 [Example 1, (Z, E) 1-(4-Fluorobenzyl)-3-Benzylidene-Indolin-2-One]
IC50 [1]: ~7.3 µM
fold stimulation (apoptosis, fragmented DNA) [2]: 6 fold
COX I % Inhibition (100 μM) [3]: <25%
